Literature values as cited in US20040247676A1, “Use of multi-layer controlled-release tablet comprising ropinirole for the manufacture of medicament for the treatment of fibromyalgia” (priority 2001, published 2004).
Counter-ions that a name gives are not always drawn.

Test system: fibromyalgia
Conditions: immediate release formulation

For `CCCN(CCC)CCc1cccc2c1CC(=O)N2` [ropinirole hydrochloride], the “effectiveness in the treatment of fibromyalgia” value is listed as “particularly effective”.
